Experimental data reported in US20060154891A1, “Ready-to-use gemcitabine solutions and gemcitabin concentrates” (priority 2004, published 2006).
Counter-ions that a name gives are not always drawn. Like-named read-outs stand apart in the source and are kept apart here.

What was measured:
[1] = room temperature; strong, aqueous hydrochloric acid solution, pH approximately 3, reconstituted Gemzar lyophilisate; cited from earlier work
[2] = Concentration at which gemcitabine hydrochloride forms a clear solution at room temperature; format: physicochemical
Description: At room temperature, gemcitabine hydrochloride forms a clear solution at a concentration of about 40 mg/milliliter in a strong, aqueous hydrochloric acid solution (pH approximately 3, reconstituted Gemzar® lyophilisate, Eli Lilly) or at a concentration of about 15 mg/mL in an aqueous, weakly alkaline solution having a pH of about 8, and at a concentration of up to 110 mg/mL in an alkaline, ethanolic, aqueous solution with a pH of approximately 10.

[3] = pH range from 3 to 10 investigated; EP 1 479 389 A1; cited from earlier work

For `Nc1ccn([C@@H]2O[C@H](CO)[C@@H](O)C2(F)F)c(=O)n1` [gemcitabine hydrochloride], the “Concentration forming a clear solution” value [1] is listed as “about 40 mg/milliliter”, the “Concentration forming a clear solution” value ([2]; alkaline, ethanolic, aqueous solution, pH of approximately 10) is listed as “up to 110 mg/mL” and the “Concentration forming a clear solution” value ([2]; aqueous, weakly alkaline solution, pH of about 8) is listed as “about 15 mg/mL”.
For `Nc1ccn([C@@H]2O[C@H](CO)[C@@H](O)C2(F)F)c(=O)n1` [gemcitabine, 2′-deoxy-2′,2′-difluorocytidine], the “pH described as optimum for stability in aqueous solution” value [3] is listed as “about 8”.
